For this series the following is noted: Liquid, Closed cell (Static) method.

Numbers after ± are expanded uncertainties.

On to `FC(F)CC(F)(F)F` [1,1,1,3,3-pentafluoropropane], for which the vapor or sublimation pressure (as a rule, the pressure of vapour in equilibrium with the condensed phase) by setting is: (323.15 K) 344.4 ± 1.6 kPa; (333.15 K) 463.2 ± 1.9 kPa; (343.15 K) 609.8 ± 2.4 kPa; (353.15 K) 789.8 ± 2.9 kPa.
On to `CC(F)F` [1,1-difluoroethane], for which the “vapor or sublimation pressure” value by setting is: (323.15 K) 1177.3 ± 3.7 kPa; (333.15 K) 1500.6 ± 4.7 kPa; (343.15 K) 1886.8 ± 5.9 kPa; (353.15 K) 2342.7 ± 7.3 kPa.

Source of the values: the NIST ThermoML archive (doi:10.1016/j.jct.2015.08.024).
